Literature values, collected in patent US20100028425A1, “PHARMACEUTICAL COMPOSITION OF ATOVAQUONE” (GLENMARK GENERICS LTD., priority 2008, published 2010).

O=C1C(O)=C([C@H]2CC[C@H](c3ccc(Cl)cc3)CC2)C(=O)c2ccccc21 [Atovaquone, trans 2-[4-(4-chlorophenyl)cyclohexyl]-3-hydroxy-1,4-naphthalenedione]
solubility in water: practically insoluble
